Experimental data reported in US20220204953A1, “Mutant of Acid Phosphatase and Application Thereof” (priority 2021, published 2022).
Changes are numbered by the printed parent chain.

Columns and labels:
Format in all cases: biochemical
Conditions in all cases: 30° C., pH 5.0, sodium pyrophosphate, 1-1,000 mM
[1] = target: T1, Pseudomonas aeruginosa acid phosphatase PaAPase, wild type (WT), SEQ ID NO: 1 (Pseudomonas aeruginosa, UniProt A0A0D6FFE3); experiment: Determination of kinetic parameters (phosphorylation of L-ascorbic acid to L-ascorbate-2-phosphate), wild type
T1 construct: 217 aa form
T1 sequence (A0A0D6FFE3 entry or part of it): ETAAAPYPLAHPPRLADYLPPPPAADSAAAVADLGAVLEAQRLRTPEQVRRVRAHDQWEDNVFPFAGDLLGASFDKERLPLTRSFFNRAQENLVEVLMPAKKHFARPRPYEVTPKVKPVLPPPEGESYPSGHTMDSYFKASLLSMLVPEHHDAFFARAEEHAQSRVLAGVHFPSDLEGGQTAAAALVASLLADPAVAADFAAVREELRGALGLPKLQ
Experimental: (§1) The activities of PaAPase and mutants thereof were determined with high-performance liquid chromatography. 500 μL of a substrate solution (500 mM L-ascorbic acid and 500 mM sodium pyrophosphate) (pH 5.0) and 5 μL of the enzyme liquid react at 30° C. for 30 min, and 95 μL of 42% phosphoric acid was added to terminate the reaction, where an activity unit was defined as the amount of enzyme required for producing 1 μmol of L-ascorbate-2-phosphate within 1 min (Table 3).
(§2) The kinetic parameters, including Vmax, Km and kcat, were calculated by measuring the generation rates of initial products of L-ascorbic acid and L-ascorbate-2-phosphate (1-1,000 mM) at different concentrations at 30° C. and under other conditions consistent with those of the determination of specific enzyme activity.

[2] = target: T2, Pseudomonas aeruginosa acid phosphatase PaAPase variant PaAPaseMu1 (D135R), SEQ ID NO: 19 (Pseudomonas aeruginosa, UniProt A0A0D6FFE3, D159R); experiment: Determination of kinetic parameters (phosphorylation of L-ascorbic acid to L-ascorbate-2-phosphate), Mu1
T2 construct: 217 aa form
T2 sequence (A0A0D6FFE3 25-241 D159R): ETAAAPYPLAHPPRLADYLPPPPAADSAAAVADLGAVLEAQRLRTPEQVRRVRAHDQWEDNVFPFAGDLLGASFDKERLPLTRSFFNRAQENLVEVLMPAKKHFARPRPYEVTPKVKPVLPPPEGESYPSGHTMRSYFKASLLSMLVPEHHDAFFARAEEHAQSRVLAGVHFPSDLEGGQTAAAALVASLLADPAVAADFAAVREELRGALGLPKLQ
Experimental: as §1, §2

[3] = target: T3, Pseudomonas aeruginosa acid phosphatase PaAPase variant PaAPaseMu2 (W58P/D135R), SEQ ID NO: 21 (Pseudomonas aeruginosa, UniProt A0A0D6FFE3, D159R/W82P); experiment: Determination of kinetic parameters (phosphorylation of L-ascorbic acid to L-ascorbate-2-phosphate), Mu2
T3 construct: 217 aa form
T3 sequence (A0A0D6FFE3 25-241 W82P/D159R): T2 sequence (A0A0D6FFE3 25-241 D159R) with W58P
Experimental: as §1, §2

[4] = target: T4, Pseudomonas aeruginosa acid phosphatase PaAPase variant PaAPaseMu3 (Q57H/W58P/D135R), SEQ ID NO: 22 (Pseudomonas aeruginosa, UniProt A0A0D6FFE3, D159R/Q81H/W82P)
T4 construct: 217 aa form
T4 sequence (A0A0D6FFE3 25-241 Q81H/W82P/D159R): T2 sequence (A0A0D6FFE3 25-241 D159R) with Q57H, W58P

O=C1O[C@H]([C@@H](O)CO)C(O)=C1O [L-ascorbic acid]
kcat [1]: 16.3 s⁻¹ | kcat/Km [1]: 56.3 M⁻¹ s⁻¹ | kcat [2]: 18.7 s⁻¹ | kcat/Km [2]: 76.3 M⁻¹ s⁻¹ | kcat [3]: 19.2 s⁻¹ | kcat/Km [3]: 86.2 M⁻¹ s⁻¹ | kcat [4]: 20.1 s⁻¹ | kcat/Km [4]: 95.3 M⁻¹ s⁻¹
